In test [1] the test system is Enterococcus faecalis ATCC 29212. Put plainly: Broth microdilution MIC. Format: cell-based. To be noted: Enterococcus faecalis, ATCC29212, read-out: Minimum Inhibitory Concentrations (MIC), Enterococcus faecalis ATCC 29212.
Test [2] deals with Staphylococcus aureus Clinical/MRSA. Put plainly: Broth microdilution MIC. Format: cell-based. To be noted: Staphylococcus aureus, MRSA, read-out: Minimum Inhibitory Concentrations (MIC). (In general: In broth dilution the organism is exposed to a series of concentrations in liquid medium.)
Test [3] deals with Bacillus cereus ATCC 14579. The experiment in a line: Broth microdilution MIC. Format: cell-based. To be noted: ATCC14579, read-out: Minimum Inhibitory Concentrations (MIC), Bacillus cereus ATCC 14579.
Test [4] concerns Pseudomonas aeruginosa ATCC 27853. The experiment in a line: Broth microdilution MIC. Format: cell-based. The settings on record: Pseudomonas aeruginosa, ATCC27853, read-out: Minimum Inhibitory Concentrations (MIC).
In test [5] the test system is Listeria monocytogenes ATCC 7644. Put plainly: Broth microdilution MIC. It counts as cell-based. The settings on record: Listeria monocytogenes, ATCC7644, read-out: Minimum Inhibitory Concentrations (MIC), Listeria monocytogenes ATCC 7644.
The subject of test [6] is Staphylococcus aureus ATCC 25923. Put plainly: Time-resolved growth kinetics. Format: cell-based. The settings on record: subinhibitory concentrations, relative to 2(QC16)3 and 2(QC16)6. Here is the method: (§1) The antimicrobial activity of the candidate compounds against Staphylococcus aureus ATCC 25923 and Listeria monocytogenes ATCC 7644 was further evaluated using a time-resolved growth kinetics assay in 96-well microtiter plates. Overnight bacterial cultures were diluted in fresh, pre-warmed Mueller–Hinton broth (MHB) and incubated at 37 °C with orbital shaking at 220 rpm. Upon reaching the exponential growth phase (OD600 = 0.3–0.5), cultures were standardized to a final concentration of 5 × 10^4 CFU/mL. Aliquots (50 µL) of the standardized inoculum were dispensed into wells containing either no antimicrobial agent (negative control) or the test compounds at concentrations corresponding to ½ MIC and MIC. Bacterial growth was continuously monitored over a 24 h period by measuring absorbance at 595 nm every 10 min using a Bio-Tek EL808 microplate reader (Winooski, VT, USA). Growth kinetics were assessed by comparing the optical density profiles of treated samples against the untreated control. Each experiment was performed independently twice, with all conditions tested in triplicate. Data are presented as the mean values of these replicates.

Test [7] shares this test system. Put plainly: Biofilm inhibition assay (crystal violet). Format: cell-based. Here is the method:
(§2) The ability of the candidate compounds to inhibit biofilm formation was evaluated by determining the minimum biofilm inhibitory concentration (MBIC) against the biofilm-forming strains Staphylococcus aureus ATCC 25923 and Listeria monocytogenes ATCC 7644. Overnight bacterial cultures were diluted in fresh, pre-warmed Mueller–Hinton broth (MHB) and incubated at 37 °C with constant shaking at 220 rpm. Once the cultures reached the exponential growth phase (OD600 = 0.3–0.5), they were standardized to a final concentration of 4 × 10^6 CFU/mL.
(§3) Plates were incubated at 37 °C for 24 to 48 h, depending on the bacterial strain. After incubation, the planktonic cells were carefully aspirated to preserve the integrity of the biofilm layer. Wells were gently rinsed with sterile ultrapure Milli-Q water and air-dried at 60 °C for 1 h to fix the biofilms. Biofilm formation was quantified using a crystal violet (CV) staining method. Wells were stained with 100 µL of 0.1% CV solution and incubated at room temperature for 1 h. Excess dye was removed by rinsing with sterile ultrapure Milli-Q water, followed by air-drying. Bound CV was solubilized with 100 µL of 70% ethanol and incubated for 30 min. The solubilized dye was transferred to a fresh plate, and absorbance was measured at 595 nm using a microplate reader (Bio-Tek EL808, Winooski, VT, USA). Absorbance values were directly proportional to biofilm biomass. Untreated bacterial cultures served as positive controls for biofilm formation, while sterile MHB served as the negative control.

Test [8] deals with Escherichia coli ATCC 25922. Put plainly: Broth microdilution MIC. It counts as cell-based. The settings on record: Escherichia coli, ATCC25922, read-out: Minimum Inhibitory Concentrations (MIC).
In test [9] the test system is HEK293 cells. The experiment in a line: Cytotoxicity MTS assay. Format: cell-based, human. To be noted: Homo sapiens, HEK293, 48 h, read-out: IC50 HEK293. Here is the method:
(§4) The cytotoxic potential of the selected drug candidates was evaluated using the CellTiter 96® AQueous One Solution Cell Proliferation Assay (Promega, Madison, WI, USA), following the manufacturer’s protocol. Human cell lines RPE1 and HEK293 were cultured at 37 °C in a humidified incubator with 5% CO2. Test compounds were dissolved in the appropriate growth medium and serially diluted across a range of concentrations in 96-well microtiter plates. Each well was seeded with 5000 cells and incubated for 48 h under standard culture conditions. Following this incubation period, 20 µL of MTS reagent was added to each well, and the plates were further incubated for 3 h to allow for color development. Absorbance was measured at 490 nm using a microplate reader to determine cell viability. Cytotoxicity was quantified as the half-maximal inhibitory concentration (IC50), defined as the concentration of compound that reduced cell viability by 50%. […] IC50 values were calculated using GraFit 6.0 software by plotting compound concentration against absorbance and fitting the data to a sigmoidal dose–response curve.

The test system of test [10] is RPE1 cells. The experiment in a line: Cytotoxicity MTS assay. It counts as cell-based, human. The settings on record: Homo sapiens, RPE-1, 48 h, read-out: IC50 RPE1. Here is the method:
as §4
On the technique in general: Formazan colour is commonly taken as a measure of viable cells.

For test [11], the system named is Staphylococcus aureus ATCC 25923. Put plainly: Time-kill kinetics assay. It counts as cell-based. Here is the method:
To assess the temporal dynamics of bacterial viability upon exposure to the test compounds, a time-kill kinetics assay was performed using the Gram-positive reference strain Staphylococcus aureus ATCC 25923. An overnight culture of the strain was subcultured into fresh, pre-warmed Mueller–Hinton broth (MHB) and incubated under aerobic conditions at 37 °C with agitation (220 rpm) until reaching the early exponential growth phase. The bacterial suspension was then standardized to an initial concentration of approximately 5 × 10^5 CFU/mL. […] Wells containing untreated bacterial cultures served as growth controls. Immediately after mixing, a 10 µL sample from each well was withdrawn, diluted in 990 µL of MHB, and serially diluted tenfold up to 10^−6. From each dilution, 20 µL was plated on MHB agar using a sterile loop to determine the initial bacterial count (time zero). The treated plates were incubated at 37 °C, and additional samples were collected at predetermined time points (2, 4, 6, 8, 12, and 24 h) following the same dilution and plating protocol. After 24 h of incubation at 37 °C, colonies were counted, and viable bacterial counts were expressed as log10 CFU/mL for each time point. Bactericidal activity was evaluated by plotting the log10 CFU/mL over time, providing a dynamic profile of the compound’s killing kinetics.

For test [12] the test system is unchanged. Put plainly: Broth microdilution MIC. It counts as cell-based. The settings on record: Staphylococcus aureus, ATCC25923, read-out: Minimum Inhibitory Concentrations (MIC).
Test [13] deals with Staphylococcus aureus ATCC 33591 (methicillin-resistant). The experiment in a line: Broth microdilution MIC. Format: cell-based. To be noted: Staphylococcus aureus, ATCC33591, read-out: Minimum Inhibitory Concentrations (MIC).
For test [14], the system named is Salmonella enterica (food isolate). Put plainly: Broth microdilution MIC. Format: cell-based. To be noted: read-out: Minimum Inhibitory Concentrations (MIC).
For test [15], the system named is Listeria monocytogenes ATCC 7644. The experiment in a line: Time-resolved growth kinetics. Format: cell-based. To be noted: MIC and ½ MIC. Here is the method:
as §1

Test [16] has the same test system. Put plainly: Biofilm inhibition assay (crystal violet). It counts as cell-based. The settings on record: Listeria monocytogenes, ATCC7644, read-out: biofilm inhibition. Here is the method:
as §2
as §3, with “Aliquots (50 µL) of the standardized bacterial suspension were inoculated into 96-well microtiter plates containing the test compounds at final concentrations of 100, 50, 25, and 12.5 µg/mL. Plates” for “Plates”

Structures are written as SMILES. A value given as a limit tells only on which side of the number the result lay.

On to `CCCCCCCCCCCCCCNC1C[N+]2(CCCCCC[N+]34CCC(CC3)C(NCCCCCCCCCCCCCC)C4)CCC1CC2` (racemic) [2(QC14)6, (±)-1,1′-(Hexane-1,6-diyl) bis(3-(tetradecylamino)quinuclidinium) dibromide], for which the MIC is 38 µM in test [1]; 75 µM in test [2]; 75 µM in test [3]; over 75 µM in test [4]; 19 µM in [5]; 19 µM in test [8]. Also, the MIC stood at 38 µM in [12], 19 µM in test [13] and 75 µM in test [14]. Moreover, the “growth curve slope in exponential phase” value in test [6] was “shallower growth curve slope”. For the same compound, the biofilm inhibition is recorded as 13% in test [7] (S. aureus ATCC 25923, 6.25 µg/mL); 15% in test [7] (S. aureus ATCC 25923, 12.5 µg/mL); 34% in test [7] (S. aureus ATCC 25923, 25 µg/mL); “remained effective” in [7] (S. aureus ATCC 25923, 50 µg/mL); over 90% in test [7] (S. aureus ATCC 25923, 100 µg/mL). Also, the IC50 in test [9] was 42 µM; in test [10] it was 61 µM. Moreover, the “time to rapid bactericidal activity” value in test [11] (S. aureus ATCC 25923) is at most 3 h. In addition, the “time to complete killing” value in [11] (S. aureus ATCC 25923, 2 × MIC) is given as 2 h.
Consider `CCCCCCCCCCCCCCCCNC1C[N+]2(CCCC[N+]34CCC(CC3)C(NCCCCCCCCCCCCCCCC)C4)CCC1CC2` (racemic) [2(QC16)4, (±)-1,1′-(Butane-1,4-diyl) bis(3-(hexadecylamino)quinuclidinium) dibromide], for which the MIC was 38 µM in test [1]; 75 µM in test [2]; over 75 µM in [3]; over 75 µM in test [4]; 9 µM in [5]; 19 µM in test [8]. In addition, the results for the MIC in test [12], in test [13] and in [14] were 75 µM, 9 µM and 75 µM, respectively. Besides, the “effect on bacterial growth” value in test [15] is “pronounced inhibitory effect”. Also, the IC50 is 25 µM in test [9] and 34 µM in test [10]. The inhibition at 6.25 µg/mL in test [16] is over 50%. Also, the inhibition at 12.5 µg/mL in [16] was over 70%. The inhibition at 25 µg/mL in test [16] is over 90%. Further, the inhibition at 50 µg/mL in test [16] was over 90%. Besides, the inhibition at 100 µg/mL in [16] came to 92%.

As usually defined, the IC50 is the midpoint of a concentration-inhibition curve. Broadly, the inhibition is the share of the control response that was lost under treatment.

Values taken from article PMC12473123, “Structure–Function Insights into Quinuclidine-3-One BisQACs: Synthesis, Modulation of Bacterial Resistance, Structure–Activity Relationship, and Biological Profiling” (Pharmaceuticals, 2025).
